In patent US7087642B2 (priority 1999, dated 2006):
Where two headings read alike, the source gives them in different places.

Key:
human PBMC T cells = assay: cells; format: cell-based; conditions: Homo sapiens, 72 h, read-out: T-cells (IC50)
IMPDH human type II = IMPDH human type II (Homo sapiens, UniProt P12268); assay: biochemical
human PBMC B cells = assay: cells; format: cell-based; conditions: Homo sapiens, 72 h, read-out: B-cells (IC50)

Compound | IC50 (human PBMC T cells) | Ki (IMPDH human type II; read-out: Ki) | IC50 (human PBMC B cells) | Ki (IMPDH human type II)
CCC(CN(CC)CC)OC(=O)NCc1cccc(NC(=O)Nc2ccc(-c3cnco3)c(OC)c2)c1 (stereo not drawn) [Compound 87] | < 100 nM | < 10 nM | < 100 nM | –
COc1cc(NC(=O)Nc2cccc(CNC(=O)O[C@@H](CO)CSC)c2)ccc1-c1cnco1 [Compound 88] | 100 to 1000 nM | < 10 nM | 100 to 1000 nM | –
COc1cc(NC(=O)Nc2cccc(CNC(=O)OC(CCC#N)C(F)(F)F)c2)ccc1-c1cnco1 (stereo not drawn) [Compound 90] | 100 to 1000 nM | < 10 nM | 100 to 1000 nM | –
CCC(C[N+]1([O-])CCS(=O)(=O)CC1)OC(=O)NCc1cccc(NC(=O)Nc2ccc(-c3cnco3)c(OC)c2)c1 (stereo not drawn) [Compound 91] | > 1000 nM | < 10 nM | > 1000 nM | –
CC[C@H](CCN(CC)CC)OC(=O)NCc1cccc(NC(=O)Nc2ccc(-c3cnco3)c(OC)c2)c1 [Compound 92] | 100 to 1000 nM | < 10 nM | 100 to 1000 nM | –
COc1cc(NC(=O)Nc2cccc(CNC(=O)OCCCOP(=O)(O)O)c2)ccc1-c1cnco1 [Compound 97] | < 100 nM | 10 to 50 nM | < 100 nM | –
COc1cc(NC(=O)Nc2cccc(CNC(=O)O[C@H](CN3CCCC3)c3ccccc3)c2)ccc1-c1cnco1 [Compound 98] | 100 to 1000 nM | 10 to 50 nM | 100 to 1000 nM | –
COc1cc(NC(=O)Nc2cccc(CNC(=O)O[C@H](CN3CCCCC3)c3ccccc3)c2)ccc1-c1cnco1 [Compound 99] | 100 to 1000 nM | 10 to 50 nM | 100 to 1000 nM | –
CCC(OC(=O)NCc1cccc(NC(=O)Nc2ccc(-c3cnco3)c(OC)c2)c1)C(C)(C)C#N (stereo not drawn) [Compound 100] | 100 to 1000 nM | 10 to 50 nM | 100 to 1000 nM | –
CC[C@@H](CCC#N)OC(=O)NCc1cccc(NC(=O)Nc2ccc(-c3cnco3)c(OC)c2)c1 [Compound 101] | < 100 nM | < 10 nM | < 100 nM | –
CC[C@@H](CCN(CC)CC)OC(=O)NCc1cccc(NC(=O)Nc2ccc(-c3cnco3)c(OC)c2)c1 [Compound 102] | 100 to 1000 nM | < 10 nM | 100 to 1000 nM | –
CCC(OC(=O)NCc1cccc(NC(=O)Nc2ccc(-c3cnco3)c(OC)c2)c1)C1(C#N)CC1 (stereo not drawn) [Compound 103] | 100 to 1000 nM | > 50 nM | < 100 nM | –
COc1cc(NC(=O)Nc2cccc(CNC(=O)OC(CC#N)C3CC3)c2)ccc1-c1cnco1 (stereo not drawn) [Compound 104] | < 100 nM | 10 to 50 nM | < 100 nM | –
CCCN(CCC(OC(=O)NCc1cccc(NC(=O)Nc2ccc(-c3cnco3)c(OC)c2)c1)c1ccccc1)C(C)C (stereo not drawn) [Compound 107] | 100 to 1000 nM | > 50 nM | 100 to 1000 nM | –
CCCN(C[C@@H](OC(=O)NCc1cccc(NC(=O)Nc2ccc(-c3cnco3)c(OC)c2)c1)c1ccccc1)C(C)C [Compound 108] | 100 to 1000 nM | > 50 nM | < 100 nM | –
COc1cc(NC(=O)Nc2cccc(CNC(=O)O[C@H](CN(CC(C)C)C(C)C)c3ccccc3)c2)ccc1-c1cnco1 [Compound 109] | 100 to 1000 nM | > 50 nM | 100 to 1000 nM | –
COc1cc(NC(=O)Nc2cccc(CNC(=O)O[C@H](CN(CC3CC3)C(C)C)c3ccccc3)c2)ccc1-c1cnco1 [Compound 110] | 100 to 1000 nM | > 50 nM | < 100 nM | –
CCCN(CC(C)C)CC(OC(=O)NCc1cccc(NC(=O)Nc2ccc(-c3cnco3)c(OC)c2)c1)c1ccccc1 (stereo not drawn) [Compound 112] | > 1000 nM | > 50 nM | > 1000 nM | –
CCCN(CCC)CC(OC(=O)NCc1cccc(NC(=O)Nc2ccc(-c3cnco3)c(OC)c2)c1)c1ccccc1 (stereo not drawn) [Compound 113] | > 1000 nM | > 50 nM | > 1000 nM | –
CCCN(CC1CC1)CC(OC(=O)NCc1cccc(NC(=O)Nc2ccc(-c3cnco3)c(OC)c2)c1)c1ccccc1 (stereo not drawn) [Compound 114] | > 1000 nM | > 50 nM | > 1000 nM | –
CCN(CC(C)C)CC(OC(=O)NCc1cccc(NC(=O)Nc2ccc(-c3cnco3)c(OC)c2)c1)c1ccccc1 (stereo not drawn) [Compound 115] | > 1000 nM | > 50 nM | > 1000 nM | –

Compound | IC50 (human PBMC T cells) | Ki (IMPDH human type II; read-out: Ki) | IC50 (human PBMC B cells) | Ki (IMPDH human type II)
COc1cc(NC(=O)Nc2cccc(CNC(=O)OC(CN(CC(C)C)CC(C)C)c3ccccc3)c2)ccc1-c1cnco1 (stereo not drawn) [Compound 116] | > 1000 nM | > 50 nM | > 1000 nM | –
COc1cc(NC(=O)Nc2cccc(CNC(=O)OC(CN(CC(C)C)CC3CC3)c3ccccc3)c2)ccc1-c1cnco1 (stereo not drawn) [Compound 117] | > 1000 nM | > 50 nM | > 1000 nM | –
CCCN(C)CCC(OC(=O)NCc1cccc(NC(=O)Nc2ccc(-c3cnco3)c(OC)c2)c1)c1ccccc1 (stereo not drawn) [Compound 118] | 100 to 1000 nM | > 50 nM | 100 to 1000 nM | –
CCCN(CC)CCC(OC(=O)NCc1cccc(NC(=O)Nc2ccc(-c3cnco3)c(OC)c2)c1)c1ccccc1 (stereo not drawn) [Compound 119] | 100 to 1000 nM | > 50 nM | 100 to 1000 nM | –
CCCN(CCC(OC(=O)NCc1cccc(NC(=O)Nc2ccc(-c3cnco3)c(OC)c2)c1)c1ccccc1)CC(C)C (stereo not drawn) [Compound 120] | > 1000 nM | > 50 nM | > 1000 nM | –
CCCN(CCC(OC(=O)NCc1cccc(NC(=O)Nc2ccc(-c3cnco3)c(OC)c2)c1)c1ccccc1)CC1CC1 (stereo not drawn) [Compound 122] | > 1000 nM | > 50 nM | > 1000 nM | –
CCCN(CCC)CCC(OC(=O)NCc1cccc(NC(=O)Nc2ccc(-c3cnco3)c(OC)c2)c1)c1ccccc1 (stereo not drawn) [Compound 123] | > 1000 nM | > 50 nM | > 1000 nM | –
CCN(CCC(OC(=O)NCc1cccc(NC(=O)Nc2ccc(-c3cnco3)c(OC)c2)c1)c1ccccc1)CC(C)C (stereo not drawn) [Compound 125] | 100 to 1000 nM | > 50 nM | 100 to 1000 nM | –
COc1cc(NC(=O)Nc2cccc(CNC(=O)OC(CCN(CC(C)C)CC(C)C)c3ccccc3)c2)ccc1-c1cnco1 (stereo not drawn) [Compound 126] | > 1000 nM | > 50 nM | > 1000 nM | –
COc1cc(NC(=O)Nc2cccc(CNC(=O)OC(CCN(CC(C)C)CC3CC3)c3ccccc3)c2)ccc1-c1cnco1 (stereo not drawn) [Compound 127] | > 1000 nM | > 50 nM | > 1000 nM | –
COc1cc(NC(=O)Nc2cccc(CNC(=O)OC(CCN(C)C(C)C)c3ccccc3)c2)ccc1-c1cnco1 (stereo not drawn) [Compound 128] | 100 to 1000 nM | > 50 nM | 100 to 1000 nM | –
CCN(CCC(OC(=O)NCc1cccc(NC(=O)Nc2ccc(-c3cnco3)c(OC)c2)c1)c1ccccc1)C(C)C (stereo not drawn) [Compound 129] | 100 to 1000 nM | > 50 nM | 100 to 1000 nM | –
COc1cc(NC(=O)Nc2cccc(CNC(=O)OC(CCN(CC(C)C)C(C)C)c3ccccc3)c2)ccc1-c1cnco1 (stereo not drawn) [Compound 130] | 100 to 1000 nM | > 50 nM | > 1000 nM | –
COc1cc(NC(=O)Nc2cccc(CNC(=O)OC(CCN(CC3CC3)C(C)C)c3ccccc3)c2)ccc1-c1cnco1 (stereo not drawn) [Compound 131] | 100 to 1000 nM | > 50 nM | 100 to 1000 nM | –
CCN(CC)CC(OC(=O)Nc1ccc(NC(=O)Nc2ccc(-c3cnco3)c(OC)c2)cc1)C(C)(C)C (stereo not drawn) [Compound 132] | 100 to 1000 nM | > 50 nM | 100 to 1000 nM | –
CCN(CC(OC(=O)NCc1cccc(NC(=O)Nc2ccc(-c3cnco3)c(OC)c2)c1)C1CCCCC1)C(C)C (stereo not drawn) [Compound 158] | > 1000 nM | 10 to 50 nM | 100 to 1000 nM | –
CC[C@H](CCC#N)OC(=O)N[C@@H](C)c1cccc(NC(=O)Nc2ccc(C#N)c(OC)c2)c1 [Compound 162] | 100 to 1000 nM | 10 to 50 nM | 100 to 1000 nM | –
CCC(CC#N)OC(=O)NC(C)c1cccc(NC(=O)Nc2ccc(-c3cnco3)c(OC)c2)c1 (stereo not drawn) [Compound 163] | < 100 nM | 10 to 50 nM | < 100 nM | –
CCN(CC)C[C@@H](OC(=O)NC(C)c1cccc(NC(=O)Nc2ccc(-c3cnco3)c(OC)c2)c1)c1ccccc1 (stereo partly drawn) [Compound 166] | 100 to 1000 nM | > 50 nM | 100 to 1000 nM | –
CC[C@H](CC#N)OC(=O)N[C@@H](C)c1cccc(NC(=O)Nc2ccc(C#N)c(OC)c2)c1 [Compound 169] | < 100 nM | – | < 100 nM | < 10 nM
COc1cc(NC(=O)Nc2cccc([C@H](C)NC(=O)OCCC#N)c2)ccc1C#N [Compound 170] | 100 to 1000 nM | < 10 nM | 100 to 1000 nM | –
